Results: patent publication US7429396B2, “Antifungal composition, its fungicidal effect on pathogenic dermatophytes, and process for inhibiting growth of fungi” (Bio-Botanica, Inc., priority 2003, dated 2008)
≈ marks a conversion by molar mass, not a printed value.

Legend:
Format in all cases: cell-based
[1] = test system: Microsporum canis ATCC 36299; assay: Macrodilution broth MIC/MFC test on dermatophytes (Example 4); conditions: for MIC: Microsporum canis, ATCC36299, read-out: Minimum Inhibitory Concentration (MIC)
Protocol: (§1) The organisms used included Epidermophyton floccosum ATCC 52066, Trichophyton mentagrophytes ATCC 9533, and Microsporum canis ATCC 36299. The molds were cultured on Oatmeal Agar slants to allow for conidial formation and incubated for 7 days at 25° C. For each mold, 5 ml of sterile 0.85% NaCl was added to each slant, the culture surface was rubbed with a sterile wooden applicator stick, and the suspension was then transferred to a sterile tube. By comparison to the McFarland 0.5 turbidity standard, the suspension was adjusted by adding sterile 0.85% NaCl as necessary. The resulting suspension was c.1×10^8 CFU/ml. Then 300 μl of organism suspension was added to 10 ml of sterile saline, diluting it to c.1×10^6 CFU/ml.
(§2) The Macrodilution broth method was performed using serial two-fold dilutions of RPMI-1640 (Sigma) with L-glutamine but without sodium bicarbonate.
(§3) Six 18×150 tubes of RPMI-1640 were used for each organism tested. Starting with tube 1 containing 20 ml RPMI labeled as 0.250 μl/ml and then tubes 2 through 6 containing 10 ml RPMI labeled as 0.125 μl/ml, 0.06 μl/ml, 0.03 μl/ml, 0.015 μl/ml, and 0.008 μl/ml respectively. • 1. 26 μl of each product of Examples 1-3 was added to 1000 μl DMSO. The final concentration of DMSO is kept below 1%. • 2. 200 μl of the sample dilution (26 μl/ml) was added to tube 1 (20 ml of RPMI-1640) making an initial concentration of 0.250 μl/ml. • 3. A serial dilution was performed, pipetting 10 ml from tube 1 to tube 2; continuing the dilution to tube 6.
(§4) For the Clotrimazole, Mycelex® and Ciclopirox Olamine, ten 18×150 tubes of RPMI-1640 were used for each organism tested. Starting with tube 1 containing 20 ml RPMI labeled 16 μg/ml and then tubes 2 through 10 containing 10 ml RPMI labeled as 8.0 μg/ml, 4.0 μg/ml, 2.0 μg/ml, 1.0 μg/ml, 0.50 μg/ml, 0.25 μg/ml, 0.125 μg/ml, 0.06 μg/ml and 0.03 μg/ml respectively. • 1. 160 mg of active ingredient was added to 100 ml DMSO. • 2. 200 μl of the sample dilution (1600 μg/ml) was added to tube 1 (20 ml of RPMI-1640) making an initial concentration of 16 μg/ml. • 3. A serial dilution was performed, pipetting 10 ml from tube 1 to tube 2; continuing the dilution to tube 10. Inoculation and Incubation
(§5) Once the tubes were arranged according to product, concentration and mold type, 300 μl of appropriate mold inoculum was added to each tube and the tubes were then placed in an incubator at 35° C. along with a purity plate for inoculum verification for each mold. The final mold inoculum level was c.1×10^4 CFU/ml. As controls, one tube with 10 ml RPMI was used for the “Negative Control”, and 3 tubes with 10 ml RPMI plus 300 μl mold inoculum were used for the positive controls (one for each mold).
(§6) Final results were recorded after 7 days. Growth (G) was noted when there was full growth visible (i.e. the tube appeared as cloudy as the positive control tube). Partial activity (P) was recorded when the broth in the tube was less turbid than the positive control tube. No growth (I) was recorded when there was total inhibition and the broth in the tube appeared clear (in comparison with the negative control tube).
(§7) The MIC measures fungistatic activity as the lowest concentration that will inhibit growth of the mold. […] The MIC for an azole is the lowest concentration capable of inhibiting 80% growth, which would be a result of partial inhibition (P), one dilution below full inhibition.
(§8) The MFC measures the lowest concentration of the test agent that will kill the fungi. The fungicidal activity of the products was determined by subculturing 20 μl from tubes with no visible growth onto properly labeled SDA plates. Also 20 μl from the last tube with growth and 20 μl from the positive control tube were subcultured as controls. All plates were incubated at 25° C. for 14 days. The MFC was recorded as the lowest concentration showing no growth or <3 colonies of growth, which equals 99-99.5% killing activity.

[2] = test system: Epidermophyton floccosum ATCC 52066; assay: as above; conditions: for MIC: Epidermophyton floccosum, ATCC52066, read-out: Minimum Inhibitory Concentration (MIC)
Protocol: as §1, §2, §3, §4, §5, §6, §7, §8

[3] = test system: Trichophyton mentagrophytes ATCC 9533; assay: as above; conditions: for MIC: Trichophyton mentagrophytes, ATCC9533, read-out: Minimum Inhibitory Concentration (MIC)
Protocol: as §1, §2, §3, §4, §5, §6, §7, §8

[4] = test system: all organisms (Epidermophyton floccosum, Trichophyton mentagrophytes, Microsporum canis); assay: Macrodilution broth MIC/MFC, all dermatophytes tested (Example 4); conditions: for MIC: all dermatophytes
Protocol: as §1, §2, §3, §4, §5, §6, §7, §8

Row | growth score, MIC test ([1]; 8.0 μg/ml) | growth score, MIC test ([1]; 16.0 μg/ml) | MIC [1] [µg/mL] | growth score, MIC test ([2]; 8.0 μg/ml) | growth score, MIC test ([2]; 16.0 μg/ml) | MIC [2] [µg/mL] | growth score, MIC test ([3]; 16.0 μg/ml) | MIC [3] [µg/mL] | MIC to Inhibit all organisms [4] [%] | MIC [4] [µg/mL] | Compound | concentration at which still unable to kill the dermatophytes (MFC) [4] | fungistatic or fungicidal activity [4] | other results
1 | I | I | 4 (≈ 19.3 µM) | I | I | 8 (≈ 38.6 µM) | I | 16 (≈ 77.2 µM) | 0.0016 | 16 (≈ 77.2 µM) | Cc1cc(C2CCCCC2)n(O)c(=O)c1 [Ciclopirox Olamine] | greater than 32 μg/ml | fungistatic not fungicidal | –
2 | I | I | 0.06 (≈ 0.174 µM) | I | I | 0.06 (≈ 0.174 µM) | I | 0.06 (≈ 0.174 µM) | 0.000006 | 0.06 (≈ 0.174 µM) | Clc1ccccc1C(c1ccccc1)(c1ccccc1)n1ccnc1 [Clotrimazole] | greater than 4 μg/ml | fungistatic not fungicidal | growth score, MIC test ([1]; 0.125 μg/ml): I; growth score, MIC test ([1]; 0.250 μg/ml): I; growth score, MIC test ([1]; 0.50 μg/ml): I; growth score, MIC test ([1]; 1.0 μg/ml): I; growth score, MIC test ([1]; 2.0 μg/ml): I; growth score, MIC test ([1]; 4.0 μg/ml): I; growth score, MIC test ([2]; 0.125 μg/ml): I; growth score, MIC test ([2]; 0.250 μg/ml): I; growth score, MIC test ([2]; 0.50 μg/ml): I; growth score, MIC test ([2]; 1.0 μg/ml): I; growth score, MIC test ([2]; 2.0 μg/ml): I; growth score, MIC test ([2]; 4.0 μg/ml): I; growth score, MIC test ([3]; 0.125 μg/ml): I; growth score, MIC test ([3]; 0.250 μg/ml): I; growth score, MIC test ([3]; 0.50 μg/ml): I; growth score, MIC test ([3]; 1.0 μg/ml): I; growth score, MIC test ([3]; 2.0 μg/ml): I; growth score, MIC test ([3]; 4.0 μg/ml): I; growth score, MIC test ([3]; 8.0 μg/ml): I
